{
  "source": "patent US20110296540A1",
  "about": "“ASSAY FOR SCREENING ANTIDEPRESSANTS” (priority 2008, published 2011)",
  "key": {"5-HT1A autoreceptors [1]": {"target": "T1, 5-HT1A autoreceptors (Mus musculus, UniProt Q64264)", "T1 sequence (Q64264 1-421)": "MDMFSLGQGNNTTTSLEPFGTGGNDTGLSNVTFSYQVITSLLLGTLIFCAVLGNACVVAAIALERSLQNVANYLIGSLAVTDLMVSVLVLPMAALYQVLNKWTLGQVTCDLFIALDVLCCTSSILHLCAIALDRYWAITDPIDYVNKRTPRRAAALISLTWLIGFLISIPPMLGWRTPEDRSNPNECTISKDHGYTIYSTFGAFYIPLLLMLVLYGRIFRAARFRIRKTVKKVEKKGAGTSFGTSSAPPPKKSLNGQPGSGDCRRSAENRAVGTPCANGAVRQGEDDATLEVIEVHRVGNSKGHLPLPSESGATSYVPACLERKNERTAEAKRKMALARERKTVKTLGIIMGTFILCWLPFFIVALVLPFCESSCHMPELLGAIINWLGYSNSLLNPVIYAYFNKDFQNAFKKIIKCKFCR", "assay": "Whole cell recordings in the dorsal raphe, response to 5-HT1A agonist", "assay_type": "cell-based", "parameters": "endogenous in cells; host or cells: Serotonergic neurons of the raphe nuclei in mice homozygous for tetO-1A with one copy of Pet-tTS", "conditions": "1A-High mice vs. 1A-Low mice; 100 nM", "source_text": "Downward deflections reflect spontaneous synaptic activity.\nMuch of this difference is accounted for by a smaller proportion of serotonergic neurons responding to the agonist challenge in the 1A-Low mice."}, "5-HT1A autoreceptors [2]": {"target": "T1, 5-HT1A autoreceptors", "experimental": "(A) 8-OH DPAT-induced hypothermia in 1A-High and 1A-Low mice. Following establishment of baseline body temperature, animals received IP injections of 0.1 mg/kg 8-OHDAPT, 0.5 mg/kg 8-OH DPAT, or saline (N=5/dose/group). Values are expressed as core temperature change from the last recorded baseline temperature."}, "C57BL/6Ntac mice [3]": {"tested_on": "C57BL/6Ntac mice", "assay": "Open Field paradigm, chronic corticosterone model", "assay_type": "in vivo", "conditions": "3-week antidepressant treatment in corticosterone-treated mice; imipramine 40, fluoxetine 18 mg/kg/day", "source_text": "The procedure described previously was used (Dulawa et al., 2004). Motor activity was quantified in four Plexiglas open field boxes 43 times 43 cm2 (MED Associates, Georgia, Vt.). Two sets of 16 pulse-modulated infrared photobeams were placed on opposite walls 2.5-cm apart to record x-y ambulatory movements. Activity chambers were computer interfaced for data sampling at 100-ms resolution. The computer defined grid lines that divided each Open Field into center and surround regions, with each of four lines being 11 cm from each wall. Dependent measures in the center were the total time and the number of entries over a 30-min period of test. The whole session was also divided in […] to analyze the time spent in the center every 5 min. The overall motor activity was quantified as the total distance traveled (cm) or distance traveled in the center divided by total distance traveled.\nMice were anesthetized with ketamine and xylazine (100 mg/ml ketamine; 20 mg/ml xylazine), placed in a stereotaxic frame and exposed to cranial irradiation using a Siemens Stabilopan X-ray system operated at 300 kVp and 20 mA. Animals were protected with a lead shield that covered the entire body, but left unshielded a 3.22×11-mm treatment field above the hippocampus (interaural 3.00 to 0.00) exposed to X-Ray. Dosimetry was done using a Capintec Model PR06G electrometer ionization chamber and Kodak Readypack Radiographic XV films. The corrected dose rate was approximately 1.8 Gy per min at a source to skin distance of 30 cm. The procedure lasted 2 min and 47 sec, delivering a total of 5 Gy. Three 5 Gy doses were delivered on days 1, 4 and 8."}, "C57BL/6Ntac mice [4]": {"tested_on": "C57BL/6Ntac mice", "assay": "Forced Swim Test, chronic corticosterone model", "assay_type": "in vivo", "conditions": "for immobility duration (FST): mean±SEM"}, "HPA axis": {"tested_on": "HPA axis", "assay": "Stress evoked increase of corticosterone levels", "assay_type": "in vivo, mice", "conditions": "acute swim stress; baseline conditions and after chronic corticosterone treatment", "method": "Adult male C57BL/6Ntac mice were exposed to a 6 minutes swim stress. […]. Blood was collected into ice-chilled tubes containing EDTA and centrifuged at 3000 rpm for 10 min (at 4° C.) for separation of plasma, and plasma samples were stored at −80° C. until assayed. […]; Diagnostic Systems Laboratories, Inc. Webster, Tex.; sensitivity limit: 20 ng/ml). ACTH was measured directly in plasma using an ImmuChem™ Double Antibody hACTH 1251 RIA kit (No. 07-106101; MP Biomedicals, LLC, Orangeburg, N.Y.) with a sensitivity limit ˜5.7 pg/ml. All samples were measured simultaneously to reduce inter-assay variability."}, "[5]": {"tested_on": "tet0-1A homozygous mice that do not carry the tTS transgene", "assay": "Control for the effects of doxycycline on baseline anxiety and depression-related behavior", "assay_type": "in vivo", "conditions": "transgene-negative littermates", "source_text": "FIGS. 27A-C Control for the effects of doxycycline on baseline anxiety and depression-related behavior.\n(C) Likewise, no differences were detected in the forced swim test on either the first (i) or second (ii) day of testing (N=47).\nThis was accomplished using a novel bigenic system consisting of two parts: 1) insertion of the tet0 DNA regulatory element into the promoter region of the Htr1a gene, to create the tet0-1A allele and 2) raphe-specific expression of the tetracycline-dependent transcriptional suppressor (tTS) under the control of the previously characterized 540Z Pet-1 promoter fragment (P. M. Fisher et al., Nat Neurosci 9, 1362 (Nov., 2006)). […] Removal of doxycycline for four weeks beginning at postnatal day (PND) 50 creates an adult population of animals with lower expression of 5-HT1A autoreceptors (1A-Low) (FIG. 21b). Four weeks after doxycycline removal, suppression has reached maximal levels (data not shown)."}},
  "note": "Where two headings read alike, the source gives them in different places.",
  "data": [
    {"molecule": "NCCc1c[nH]c2ccc(C(N)=O)cc12", "note": "[5-CT]", "values": [
      {"measurement": "average current elicited by agonist challenge in serotonergic neurons", "setting": "5-HT1A autoreceptors [1]", "result": "significantly higher"}
    ]},
    {"molecule": "CCCN(CCC)C1CCc2cccc(O)c2C1", "note": "(stereo not shown) [8-OH DPAT]", "values": [
      {"measurement": "hypothermic response to 5-HT1A agonist challenge", "setting": "5-HT1A autoreceptors [2]; 1A-High mice, 0.1 and 0.5 mg/kg IP", "result": "robust and dose-dependent hypothermic response"},
      {"measurement": "hypothermic response to 8-OH DPAT", "setting": "5-HT1A autoreceptors [2]; 1A-High vehicle control mice, 0.5 mg/kg i.p.", "result": "robust hypothermic response"},
      {"measurement": "hypothermic response to 5-HT1A agonist challenge", "setting": "5-HT1A autoreceptors [2]; 1A-Low mice, detected only at the highest dose", "result": "attenuated response"}
    ]},
    {"molecule": "CN(C)CCCN1c2ccccc2CCc2ccccc21", "note": "[imipramine]", "values": [
      {"measurement": "corticosterone-induced anxiety phenotype in the Open Field (time and entries in the center)", "setting": "C57BL/6Ntac mice [3]", "result": "reversed"},
      {"measurement": "immobility duration (FST)", "setting": "C57BL/6Ntac mice [4]; corticosterone treated animals, alone or with antidepressant", "result": 296.8, "unit": "s"},
      {"measurement": "immobility duration (FST)", "setting": "C57BL/6Ntac mice [4]; non-corticosterone treated animals", "result": 298.5, "unit": "s"},
      {"measurement": "duration of immobility (FST), effect", "setting": "C57BL/6Ntac mice [4]; two-way ANOVA, corticosterone 7 weeks, antidepressants last 3 weeks", "result": "decreased"},
      {"measurement": "stress induced corticosterone levels", "setting": "HPA axis", "result": "had no effect"}
    ]},
    {"molecule": "C[C@H]1c2cccc(O)c2C(=O)C2=C(O)[C@]3(O)C(=O)C(C(N)=O)=C(O)[C@@H](N(C)C)[C@@H]3[C@@H](O)[C@@H]21", "note": "[doxycycline]", "values": [
      {"measurement": "effect on behavioral measures (Open Field, Light/Dark choice test, forced swim test)", "setting": "[5]", "result": "no effect"}
    ]}
  ]
}
